Data published in patent US11679107B2 (Eisai R&D Management Co., Ltd., priority 2018, dated 2023).
Like-named read-outs stand apart in the source and are kept apart here.

Key:
SF3b complexes = biological target: T1, SF3b complexes (Homo sapiens, UniProt O75533+Q7RTV0); assay: Scintillation proximity assay (SPA) with [3H]-labelled pladienolide probe; format: binding; settings: SF3B1 (WT); geometric mean; read-out: SPA-ATS GMean IC50 (nM) SF3B1 (WT)
T1 construct: endogenous in cells; host or cells: Nuclear extracts; A HeLa S3 extract preparation is described for the in vitro splicing assay
Method in brief: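 SF3b complexes captured from nuclear extracts on anti-SF3B1 antibody SPA beads; test compounds pre-incubated 30 min before 2.5 nM [3H]-pladienolide probe added, then 30 min incubation. Bound probe read by scintillation; values from non-linear regression of concentration–response curves.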

[1] = test system: Ad2 variant pre-mRNAs spliced in HeLa S3 nuclear extracts; assay: In vitro splicing assay (IVS), RT-qPCR of spliced product; format: biochemical; settings: for IC50: geometric mean
Method in brief: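 Read-out is one-step TaqMan RT-qPCR of spliced Ad2 mRNA with Ftz as reference, normalized to DMSO and fit by non-linear regression. Reactions held HeLa S3 nuclear extract, 2 ng Ad2-derived pre-mRNA and test compound, with 15 min preincubation. Splicing was started with ATP-containing activation buffer and run 90 min at 30 °C.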

[2] = test system: NCI-H1568 cells (high MCL1); assay: Cell proliferation and viability, CellTiter-Glo, 72 hours; format: cell-based; settings: for GI50: geometric mean
Method in brief: (§1)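 ATP luminescence (CellTiter-Glo) was measured 72 h after treatment with compound at 10 μM–100 pM (11 points, half-log) in 0.1% DMSO. The Panc line was grown in RPMI-1640 plus insulin and 15% FBS, the other in 10% FBS. Data were normalised to time zero and vehicle controls, where −100% is cidal and 0% static.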

[3] = test system: Panc 05.04 cells (SF3b K700E mutant); assay: as above; format: cell-based; settings: for GI50: geometric mean
Method in brief: as §1

[4] = Ad2.1 pre-mRNA substrate, read-out: qPCR-IVS-ATS GMean IC50 (nM) Ad2.1
[5] = Ad2.2 pre-mRNA substrate, read-out: qPCR-IVS-ATS GMean IC50 (nM) Ad2.2
[6] = NCI-H1568, read-out: CTGlo-ATS GMean GI50 (nM) 72 h NCIH1568.1, NCIH1568.1 cells, 72 h
[7] = NCIH1568.1 cells, 72 h, −100% cidal, 0% static, 100% maximal growth
[8] = PANC0504.1 cells, 72 h, −100% cidal, 0% static, 100% maximal growth
[9] = Panc 05.04, read-out: CTGlo-ATS GMean GI50 (nM) 72 h PANC0504.1, PANC0504.1 cells, 72 h

Row | Structure (SMILES) | IC50 (SF3b complexes) | IC50 [1, 4] | IC50 [1, 5] | GI50 [2, 6] | CTGlo-ATS Mean MinResponse % 72 h NCIH1568.1 [2, 7] | CTGlo-ATS Mean MinResponse % 72 h PANC0504.1 [3, 8] | GI50 [3, 9] | GI50 ([2]; read-out: CTGlo-ATS GMean GI50 (nM) 72 h NCIH1568.1, NCIH1568.1 cells, 72 h) | GI50 ([3]; read-out: CTGlo-ATS GMean GI50 (nM) 72 h PANC0504.1, PANC0504.1 cells, 72 h) | Ratio Ad2.1/2.2 ([1]; ratio of IVS IC50 Ad2.1 to Ad2.2) | CTGlo-ATS Mean MinResponse % 72 h NCIH1568.1 ([2]; 72 h, NCIH1568.1, -100% = cidal, 0% = static, 100% = uninhibited growth) | GI50 ([2]; NCI-H1568, read-out: CTGlo-ATS GMean GI50 (nM) 72 h NCIH1568.1, 72 h, NCIH1568.1) | CTGlo-ATS Mean MinResponse % 72 h PANC0504.1 ([3]; 72 h, PANC0504.1, -100% = cidal, 0% = static, 100% = uninhibited growth) | GI50 ([3]; Panc 05.04, read-out: CTGlo-ATS GMean GI50 (nM) 72 h PANC0504.1, 72 h, PANC0504.1) | GI50 ([2]; NCI-H1568, 72 h, read-out: CTGlo-ATS GMean GI50 (nM) 72 h NCIH1568.1, NCIH1568.1 cells, 72 h) | GI50 ([3]; Panc 05.04, 72 h, read-out: CTGlo-ATS GMean GI50 (nM) 72 h PANC0504.1, PANC0504.1 cells, 72 h)
1 | C/C(=C\c1cc(F)cc(N(C)C2CCN(C)CC2)c1)[C@H]1OC(=O)C[C@H](O)CC[C@H](C)[C@@H](OC(=O)N2CCN(C)CC2)/C=C/[C@@H]1C [Compound 31] | 43.2 nM | 50.1 nM | 14.6 nM | 89.4 nM | −98.108% | −90.716% | 53 nM |  |  |  |  |  |  |  |  | 
2 | C/C(=C\c1cc(F)c2cn(CC3CC3)nc2c1)[C@H]1OC(=O)C[C@H](O)CC[C@H](C)[C@@H](OC(=O)N2CCN(C)CC2)/C=C/[C@@H]1C [Compound 99] | 4.14 nM | > 25000 nM | 156 nM | 93.2 nM | −73.818% | −69.788% | 78 nM |  |  |  |  |  |  |  |  | 
3 | C/C(=C\c1cc(F)cc(N2CCOCC2)c1)[C@H]1OC(=O)C[C@H](O)CC[C@@](C)(O)C(OC(=O)N2CCN(C)CC2)/C=C/[C@@H]1C (stereo in doubt) [Compound 86, [(2S,3S,4E,6R,7R,10R)-2-[(E)-1-(3-fluoro-5-morpholin-4-ylphenyl)prop-1-en-2-yl]-7,10-dihydroxy-3,7-dimethyl-12-oxo-1-oxacyclododec-4-en-6-yl] 4-methylpiperazine-1-carboxylate] | 12.2 nM | 929 nM | 89.6 nM |  | −39.164% | −93.814% |  | 32.5 nM | 34.8 nM |  |  |  |  |  |  | 
4 | C/C(=C\c1cccc(N2CCN(CCO)CC2)c1)[C@H]1OC(=O)C[C@H](O)CC[C@H](C)[C@@H](OC(=O)N2CCC(N3CCCCC3)CC2)/C=C/[C@@H]1C [Compound 263, [(2S,3S,4E,6R,7S,10R)-10-hydroxy-2-[(E)-1-[3-[4-(2-hydroxyethyl)piperazin-1-yl]phenyl]prop-1-en-2-yl]-3,7-dimethyl-12-oxo-1-oxacyclododec-4-en-6-yl] 4-piperidin-1-ylpiperidine-1-carboxylate] | 37.7 nM | 93.6 nM | 25.5 nM |  |  |  |  |  |  | 3.677 | −67.601% | 102 nM | −88.783% | 64.5 nM |  | 
5 | C/C(=C\c1cc(F)cc(N2CCN(CC(=O)c3cnccn3)CC2)c1)[C@H]1OC(=O)C[C@H](O)CC[C@H](C)[C@@H](OC(=O)N2CCN(C)CC2)/C=C/[C@@H]1C [Compound 85] | 4.74 nM | 22 nM | 27 nM |  | −80.438% | −90.914% |  |  |  |  |  |  |  |  | 14.1 nM | 8.42 nM
6 | C/C(=C\c1cc(F)cc(N2CCOC[C@@H]2C)c1)[C@H]1OC(=O)C[C@H](O)CC[C@H](C)[C@@H](OC(=O)N2CCN(C)CC2)/C=C/[C@@H]1C [Compound 83] | 4.57 nM | 159 nM | 49 nM | 17.3 nM | −68.447% | −94.723% | 15.6 nM |  |  |  |  |  |  |  |  | 
7 | C/C(=C\c1cc(Cl)cc(Cl)c1)[C@H]1OC(=O)C[C@H](O)CC[C@H](C)[C@@H](OC(=O)N2CCN(C)CC2)/C=C/[C@@H]1C [Compound 48] | 11.3 nM | > 25000 nM | 188 nM | 121 nM | −38.837% | −89.415% | 95.2 nM |  |  |  |  |  |  |  |  | 
8 | C/C(=C\c1cc(F)cc(N2CCN(CC(F)(F)F)CC2)c1)[C@H]1OC(=O)C[C@H](O)CC[C@H](C)[C@@H](OC(=O)N2CCN(C)CC2)/C=C/[C@@H]1C [Compound 107] | 8.76 nM | 190 nM | 25.4 nM | 7.27 nM | −87.564% | −83.679% | 8.46 nM |  |  |  |  |  |  |  |  | 
